± gives the standard error.
What was measured:
621-102 (TSC2-deficient) = experiment: relative viability vs DMSO; higher = less cytotoxic; settings: serum: 10% FBS, 72 h
621-103 (TSC2-rescued) = experiment: as above; settings: serum: 10% FBS, 72 h
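Also: immortalized renal angiomyolipoma cells stably carrying empty vector or TSC2, dosed in 384-well plates in DMEM, viability normalized to vehicle-treated wells within each plate.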

Row | Compound | relative viability (621-102 (TSC2-deficient); 0.0001 µM) | relative viability (621-102 (TSC2-deficient); 0.001 µM) | relative viability (621-102 (TSC2-deficient); 0.01 µM) | relative viability (621-102 (TSC2-deficient); 0.1 µM) | relative viability (621-102 (TSC2-deficient); 1 µM) | relative viability (621-102 (TSC2-deficient); 10 µM) | relative viability (621-103 (TSC2-rescued); 0.0001 µM) | relative viability (621-103 (TSC2-rescued); 0.001 µM) | relative viability (621-103 (TSC2-rescued); 0.01 µM) | relative viability (621-103 (TSC2-rescued); 0.1 µM) | relative viability (621-103 (TSC2-rescued); 1 µM) | relative viability (621-103 (TSC2-rescued); 10 µM)
1 | Cc1nc(Nc2ncc(C(=O)Nc3c(C)cccc3Cl)s2)cc(N2CCN(CCO)CC2)n1 [Dasatinib] | 71.7 ± 5.2% | 85.1 ± 7.2% | 70.7 ± 7.3% | 67.6 ± 4.7% | 67.5 ± 5.2% | 49.9 ± 2.6% | 92.9 ± 1.8% | 79 ± 2% | 74.3 ± 4.4% | 73.9 ± 5.5% | 61.2 ± 4.1% | 47.4 ± 2%
2 | CC(C)CC(=O)Nc1n[nH]c2c1CN(C(=O)C1CCN(C)CC1)C2(C)C | 105.5 ± 0.63% | 109 ± 4% | 103 ± 2.3% | 93.5 ± 0.62% | 79 ± 1.2% | 13.5 ± 0.25% | 100.3 ± 0.33% | 101 ± 2% | 102 ± 1.2% | 102 ± 1.3% | 94.4 ± 1.7% | 22.5 ± 1.5%
3 | COC[C@@H](c1ccc(C(F)(F)F)cc1)N1CCN(C2(C)CCN(C(=O)c3c(C)ncnc3C)CC2)C[C@@H]1C [Vicriviroc Malate] | 100.4 ± 0.12% | 106 ± 2.8% | 113 ± 2.9% | 108 ± 3.2% | 100 ± 1.5% | 100.24 ± 0.061% | 102 ± 3.4% | 99.95 ± 0.79% | 101 ± 2.1% | 99.04 ± 0.74% | 96.3 ± 1.4% | 97.62 ± 0.55%
4 | C[C@]12C=CC(=O)N[C@@H]1CC[C@@H]1[C@@H]2CC[C@]2(C)[C@@H](C(=O)Nc3cc(C(F)(F)F)ccc3C(F)(F)F)CC[C@@H]12 [Dutasteride (Avodart)] | 118 ± 1.5% | 116 ± 1.9% | 115 ± 2.4% | 96.4 ± 1.7% | 107.7 ± 0.56% | 98.5 ± 2.3% | 104 ± 1.4% | 105 ± 2.2% | 100.7 ± 0.37% | 101 ± 1.4% | 101 ± 1.5% | 94.61 ± 0.46%
5 | C#Cc1cccc(Nc2ncnc3cc(OCCOC)c(OCCO)cc23)c1 [OSI-420] | 118 ± 6.5% | 106.9 ± 0.52% | 103 ± 0.19% | 95.9 ± 4% | 115 ± 2.9% | 95.8 ± 1.9% | 102.2 ± 0.8% | 101.12 ± 0.0035% | 106.2 ± 0.97% | 100 ± 1.9% | 101.78 ± 0.034% | 74.8 ± 1.7%
6 | C[C@H](NC(=O)Cc1cc(F)cc(F)c1)C(=O)N[C@H](C(=O)OC(C)(C)C)c1ccccc1 [DAPT (GSI-IX)] | 104 ± 4.3% | 99.1 ± 1.5% | 100 ± 2.3% | 97.82 ± 0.41% | 97.7 ± 4.1% | 97.1 ± 5.9% | 94.6 ± 6.5% | 105.2 ± 0.68% | 103.7 ± 0.49% | 101.4 ± 0.89% | 97.2 ± 2.8% | 98.2 ± 1.4%
7 | Cn1c(=O)c(F)c(Nc2ccc(I)cc2F)c2c(=O)n(C[C@@H](O)CO)cnc21 [TAK-733] | 101 ± 5.3% | 107 ± 2.2% | 101 ± 4.8% | 95.22 ± 0.047% | 67.4 ± 2.4% | 54.3 ± 0.28% | 97.8 ± 5.4% | 84.4 ± 2.9% | 83.5 ± 6% | 84.4 ± 7% | 60.7 ± 6.7% | 51.7 ± 4.3%
8 | CCC(C)(Oc1ccc(C2(c3ccc(OC(C)(CC)C(=O)O)cc3)CCCCC2)cc1)C(=O)O (stereo not drawn) [Clinofibrate] | 99.8 ± 0.13% | 107 ± 1.1% | 99.1 ± 2.4% | 99.1 ± 1.4% | 94.4 ± 4.2% | 107 ± 2.1% | 102.4 ± 0.13% | 93 ± 7.7% | 94.9 ± 0.43% | 105 ± 1.8% | 105 ± 3.6% | 91.3 ± 2.9%
9 | CCN(CC)Cc1ccc2cc(COC(=O)Nc3ccc(C(=O)NO)cc3)ccc2c1 [ITF2357] | 107 ± 6.2% | 101 ± 3.4% | 95.94 ± 0.22% | 76.42 ± 0.1% | 57.1 ± 3.5% | 25.4 ± 0.77% | 98.21 ± 0.79% | 95.5 ± 1.7% | 96 ± 2% | 67.63 ± 0.33% | 26.9 ± 0.91% | 3.1 ± 0.064%
10 | O=C(NOCC1CC1)c1ccc(F)c(F)c1Nc1ccc(I)cc1Cl | 101 ± 2.5% | 98 ± 1.2% | 104 ± 1.8% | 97.3 ± 1.5% | 98.4 ± 1.5% | 81.4 ± 0.87% | 97.56 ± 0.82% | 92.3 ± 5.6% | 98.9 ± 2.7% | 99.9 ± 2.7% | 96.7 ± 3.3% | 74.9 ± 1.4%
11 | Cc1c(NC(=O)OC[C@@H]2COCCN2)cn2ncnc(Nc3ccc4c(cnn4Cc4cccc(F)c4)c3)c12 | 101 ± 2.7% | 104 ± 2% | 97.6 ± 2% | 104.2 ± 0.79% | 96.3 ± 2.8% | 81.33 ± 0.65% | 100.9 ± 0.54% | 100 ± 1.2% | 102 ± 1.5% | 101.3 ± 0.88% | 101 ± 1.9% | 82.5 ± 5.9%
12 | CN(C)C1CCN(C(=O)c2ccc(NC(=O)Nc3ccc(-c4nc(N5CCOCC5)nc(N5CCOCC5)n4)cc3)cc2)CC1 [PKI-587] | 52.3 ± 1.3% | 38.71 ± 0.29% | 29.8 ± 0.13% | 22.16 ± 0.12% | 17.8 ± 0.79% | 13.3 ± 0.47% | 72.6 ± 3.4% | 49.4 ± 3% | 44.8 ± 2.2% | 33.8 ± 1.2% | 26.61 ± 0.072% | 19.91 ± 0.074%
13 | N=C(N)NC(=N)N1CCOCC1 [Moroxydine] | 109 ± 1.8% | 111 ± 1.4% | 111 ± 4.4% | 107 ± 1.3% | 109.9 ± 0.84% | 99.87 ± 0.55% | 87.36 ± 0.38% | 86.9 ± 5.6% | 96.1 ± 4.8% | 92.5 ± 0.95% | 92.6 ± 2.9% | 86.5 ± 2.3%
14 | Cc1c(CN2CCN(C(=O)[C@H](C)O)CC2)sc2c(N3CCOCC3)nc(-c3cnc(N)nc3)nc12 [GDC-0980 (RC7422)] | 101 ± 1.1% | 114 ± 1.6% | 99.9 ± 1.4% | 89.64 ± 0.5% | 39.1 ± 1% | 23.3 ± 0.98% | 100.8 ± 0.26% | 98.64 ± 0.9% | 91.5 ± 5.1% | 75.5 ± 4.4% | 35.3 ± 2.2% | 30.2 ± 2%
15 | CC(C)OC(=O)C1=CN(C(=O)c2ccc(F)c(F)c2)CC(C)(C)c2c1[nH]c1ccccc21 | 111 ± 1.3% | 106.3 ± 0.78% | 104 ± 1.6% | 102 ± 6.7% | 101 ± 2.5% | 101 ± 3.1% | 102.7 ± 0.95% | 104 ± 1.7% | 98.4 ± 1.8% | 99 ± 2.6% | 94.1 ± 5.9% | 99.22 ± 0.99%
16 | NC(=O)c1ccc(I)c([N+](=O)[O-])c1 [BSI-201] | 136 ± 2.7% | 130 ± 0.89% | 126.6 ± 0.33% | 116.12 ± 0.099% | 113.7 ± 0.28% | 110 ± 3.1% | 108 ± 2.5% | 103 ± 1.1% | 105.9 ± 0.65% | 102 ± 1.9% | 100.5 ± 0.3% | 102.3 ± 0.13%
17 | O=C(Nc1cccnc1)N1CCC(Cc2cccc(Oc3ccc(C(F)(F)F)cn3)c2)CC1 [PF-3845] | 104 ± 3.4% | 103 ± 2.9% | 104 ± 1.5% | 102.11 ± 0.087% | 102 ± 3.6% | 98.8 ± 1.6% | 110 ± 5.4% | 116 ± 8.3% | 112.64 ± 0.013% | 109 ± 4.7% | 116.1 ± 0.73% | 103 ± 1.1%
18 | Oc1ncnc2[nH]ncc12 [Allopurinol] | 96.2 ± 0.32% | 105 ± 2.6% | 102 ± 1.7% | 91.9 ± 0.92% | 99.48 ± 0.58% | 101.9 ± 0.86% | 103 ± 3.1% | 98.4 ± 1.6% | 101 ± 3.5% | 98.7 ± 3.6% | 98.2 ± 1.6% | 100 ± 1.9%
19 | C[C@@H](Oc1cc(-n2cnc3ccc(CN4CCN(C)CC4)cc32)sc1C(N)=O)c1ccccc1C(F)(F)F | 97.01 ± 0.82% | 88.1 ± 1.3% | 64.5 ± 3.1% | 45.3 ± 0.63% | 40.7 ± 3.1% | 27.1 ± 3.8% | 100 ± 1.7% | 71.9 ± 4.3% | 60.2 ± 0.98% | 48.49 ± 0.29% | 40.7 ± 0.62% | 9.95 ± 0.89%

— the supplement of paper PMC8960247
